Test results taken from patent publication US20250154219A1, “PEPTIDE ANALOGS” (Adepthera LLC, priority 2017, published 2025).

What was measured:
[1] = molecular target: somatostatin receptor SSTR2 (Homo sapiens, UniProt P30874); conditions: arrestin assay
Procedure: (§1) The agonistic activities toward SSTR2, NTSR1, and AGTRL1 were assayed with an SSTR2 arrestin assay, an NTSR1 calcium flux assay, and an AGTRL1 CAMP assay (Discoverx Inc.), respectively.
(§2) For the Arrestin assays, PathHunter cell lines (Discoverx Inc.) were expanded from freezer stocks, and seeded in a total volume of 20 μL into white walled, 384-well microplates and incubated at 37 C for the appropriate time prior to testing. For agonist determination, cells were incubated with sample to induce response. […] The microplates were read following signal generation with a PerkinElmer Envision™ instrument for chemiluminescent signal detection.
(§3) The compound activity was analyzed using a CBIS data analysis suite (ChemInnovation, CA). For agonist mode assays, percentage activity was calculated using the following formula:
(§4) % Activity=100%×(mean RLU of test sample−mean RLU of vehicle control)/(mean MAX control ligand−mean RLU of vehicle control).

CLR/RAMP1 receptor [2] = molecular target: T1, CLR/RAMP1 receptor (Homo sapiens, UniProt O60894+Q16602); assay: CLR/RAMP1 cAMP receptor-activation assay (agonist mode); assay type: cell-based; conditions: agonist mode; positive control β-CGRP;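 also: Dose–response over 10 threefold dilutions from 1.0 µM, run in duplicate, luminescent cAMP detection (RLU), activity scaled between vehicle control (0%) and maximal control (100%)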
T1 sequence (Q16602 23-461): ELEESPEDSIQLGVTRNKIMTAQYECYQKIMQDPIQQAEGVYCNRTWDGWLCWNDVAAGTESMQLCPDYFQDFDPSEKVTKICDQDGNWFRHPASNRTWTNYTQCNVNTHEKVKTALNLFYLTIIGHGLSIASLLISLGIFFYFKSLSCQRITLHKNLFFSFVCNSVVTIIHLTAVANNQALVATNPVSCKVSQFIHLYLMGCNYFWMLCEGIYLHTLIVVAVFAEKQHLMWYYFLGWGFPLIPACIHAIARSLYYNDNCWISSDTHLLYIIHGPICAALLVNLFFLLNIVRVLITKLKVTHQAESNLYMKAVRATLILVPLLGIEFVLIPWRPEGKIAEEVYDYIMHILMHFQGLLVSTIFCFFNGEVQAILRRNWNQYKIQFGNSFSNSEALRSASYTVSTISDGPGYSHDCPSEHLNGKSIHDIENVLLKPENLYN
T1 sequence (O60894 27-148): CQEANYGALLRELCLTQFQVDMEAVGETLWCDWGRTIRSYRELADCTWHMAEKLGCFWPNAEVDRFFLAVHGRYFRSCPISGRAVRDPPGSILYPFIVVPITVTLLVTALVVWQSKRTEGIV
Procedure: (§5) Using a receptor activation assay, the dose-dependent stimulatory response of peptide agonists on a CLR/RAMP1 receptor, a CLR/RAMP2, or a CLR/RAMP3 receptor complex was determined. A cell line carrying the recombinant CLR/RAMP1, CLR/RAMP2, or a CLR/RAMP3 receptor was employed in the assay. Peptide agonist activities were tested, in duplicate, at 10 different concentrations, starting with 1.0 μM and serially diluted 3-fold, in DMSO. […] The CLR/RAMP1 CAMP, CLR/RAMP2 arrestin, and CLR/RAMP3 CAMP assays (DiscoveRx, Fremont, Calif.) were used.
(§6) The pharmacology of superagonistic activity of synthetic analogs was studied in cells that stably express CLR/RAMP1 (1321N1 cells), CLR/RAMP2 (CHO-K1 cells), or CLR/RAMP3 (CHO-K1 cells) receptors.
(§7) For the analysis of Gs-coupled CAMP production, cAMP Hunter cell lines were expanded from freezer stocks, and cells were seeded in a total volume of 20 μL into white walled, 384-well microplates and incubated at 37 C for the appropriate time prior to testing. The CAMP modulation was determined using the DiscoverX HitHunter CAMP XS+ assay. For agonistic activity determination, cells were incubated with sample to induce response. Media was aspirated from cells and replaced with 15 μL 2:1 HBSS/10 mM Hepes: CAMP XS+Ab reagent. […] For Gs-coupled agonistic assays, percentage activity is calculated using the following formula: % Activity=100%×(mean RLU of test sample−mean RLU of vehicle control)/(mean RLU of MAX control−mean RLU of vehicle control).

[3] = molecular target: T2, type 1 angiotensin II receptor AGTR1 (Homo sapiens, UniProt P30556); assay: AGTR1 calcium flux assay, antagonist mode; assay type: cell-based
T2 sequence (P30556 1-359): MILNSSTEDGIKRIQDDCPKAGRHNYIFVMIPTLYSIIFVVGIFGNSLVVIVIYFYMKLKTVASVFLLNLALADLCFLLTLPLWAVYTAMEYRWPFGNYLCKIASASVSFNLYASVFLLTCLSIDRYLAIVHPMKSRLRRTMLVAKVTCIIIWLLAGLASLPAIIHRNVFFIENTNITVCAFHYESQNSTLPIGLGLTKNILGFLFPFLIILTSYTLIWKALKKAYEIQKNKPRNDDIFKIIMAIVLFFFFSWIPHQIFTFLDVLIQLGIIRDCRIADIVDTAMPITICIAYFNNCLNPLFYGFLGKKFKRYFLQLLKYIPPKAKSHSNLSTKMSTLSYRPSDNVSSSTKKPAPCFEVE
Procedure: (§8) The antagonistic activities toward BDKRB1 and AGTR1 were assayed with a BDKRB1 calcium flux assay and an AGTR1 calcium flux assay (Discoverx Inc.), respectively.
(§9) For antagonist determination, cells were pre-incubated with sample followed by agonist challenge at the EC80 concentration. Intermediate dilution of sample stocks was performed to generate 3× sample in assay buffer. After dye loading, cells were removed from the incubator and 10 μL 3× sample was added. Cells were incubated for 30 minutes at room temperature in the dark to equilibrate plate temperature. […] Compound antagonistic activity was measured on a FLIPR Tetra (MDS), and calcium mobilization was monitored for 2 minutes and 10 μL EC80 agonist in HBSS/20 mM Hepes was added to the cells 5 seconds into the assay.
(§10) For antagonist assays, percentage inhibition is calculated using the following formula: % Inhibition=100%×(1−(mean RFU of test sample−mean RFU of vehicle control)/(mean RFU of EC80 control−mean RFU of vehicle control)).

CLR/RAMP2 receptor [4] = molecular target: T3, CLR/RAMP2 receptor (Homo sapiens, UniProt O60895+Q16602); assay: CLR/RAMP2 arrestin receptor-activation assay (agonist mode); assay type: cell-based; conditions: agonist mode; positive control ADM;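 also: agonist dose-response in recombinant cell lines stably expressing each receptor complex, duplicate wells over 10 threefold dilutions from a top concentration of 1.0 µM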
T3 sequence (Q16602 23-461): as the sequence (Q16602 23-461) above
T3 sequence (O60895 43-175): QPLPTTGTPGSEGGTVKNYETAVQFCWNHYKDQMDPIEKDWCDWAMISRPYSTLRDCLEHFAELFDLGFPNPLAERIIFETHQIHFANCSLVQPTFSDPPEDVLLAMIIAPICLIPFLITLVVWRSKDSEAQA
Procedure: as §5, §6, §2, §3, §4

CLR/RAMP3 receptor = CLR/RAMP3 receptor (Homo sapiens, UniProt O60896+Q16602); assay: CLR/RAMP3 cAMP assay, antagonist mode; assay type: cell-based
CLR/RAMP3 receptor, sequence (Q16602 23-461): as the sequence (Q16602 23-461) above
CLR/RAMP3 receptor, sequence (O60896 24-148): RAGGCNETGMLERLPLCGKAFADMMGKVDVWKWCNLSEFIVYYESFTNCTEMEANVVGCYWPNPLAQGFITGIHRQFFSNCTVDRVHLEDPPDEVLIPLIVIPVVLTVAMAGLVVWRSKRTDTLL
Procedure: (§11) A cell line carrying the recombinant CLR/RAMP1, CLR/RAMP2, or a CLR/RAMP3 receptor was employed in the assay. […] The CLR/RAMP1 CAMP, CLR/RAMP2 arrestin, and CLR/RAMP3 CAMP assays (DiscoveRx, Fremont, Calif.) were used.
(§12) For the analysis of antagonistic activity, synthetic analogs were pre-incubated with the cells before adding the reference ligand at its EC80. […] For the determination of antagonistic activity, cells were pre-incubated with sample followed by agonist challenge at the EC80 concentration. […] After appropriate compound incubation, assay signal was generated through incubation with 20 μL cAMP XS+ED/CL lysis cocktail for one hour followed by incubation with 20 μL cAMP XS+EA reagent for three hours at room temperature. Microplates were read following signal generation with a PerkinElmer Envision™ instrument for chemiluminescent signal detection.
(§13) For the antagonistic activity assay, percentage inhibition is calculated using the following formula: % Inhibition=100%×(1−(mean RLU of test sample−mean RLU of vehicle control)/(mean RLU of EC80 control−mean RLU of vehicle control)).

CLR/RAMP1 receptor [5] = molecular target: T1, CLR/RAMP1 receptor; assay: CLR/RAMP1 cAMP assay, antagonist mode (CGRP-stimulated); assay type: cell-based; conditions: antagonist mode
Procedure: as §11, §12, §13

CLR/RAMP2 receptor [6] = molecular target: T3, CLR/RAMP2 receptor; assay: CLR/RAMP2 arrestin assay, antagonist mode (ADM-stimulated); assay type: cell-based
Procedure: A cell line carrying the recombinant CLR/RAMP1, CLR/RAMP2, or a CLR/RAMP3 receptor was employed in the assay. Peptide agonist activities were tested, in duplicate, at 10 different concentrations, starting with 1.0 μM and serially diluted 3-fold, in DMSO. […] The CLR/RAMP1 CAMP, CLR/RAMP2 arrestin, and CLR/RAMP3 CAMP assays (DiscoveRx, Fremont, Calif.) were used.
For the analysis of antagonistic activity, synthetic analogs were pre-incubated with the cells before adding the reference ligand at its EC80. […] For antagonistic activity determination, cells were pre-incubated with antagonist followed by agonist challenge at the EC80 concentration. […] Then, 5 μL of 6× EC80 agonist in assay buffer was added to the cells and incubated at 37 C or room temperature for 90 or 180 minutes.
The microplates were read following signal generation with a PerkinElmer Envision™ instrument for chemiluminescent signal detection.
% Activity=100%×(mean RLU of test sample−mean RLU of vehicle control)/(mean MAX control ligand−mean RLU of vehicle control). For antagonistic activity assays, percentage inhibition was calculated using the following formula: % Inhibition=100%×(1−(mean RLU of test sample−mean RLU of vehicle control)/(mean RLU of EC80 control−mean RLU of vehicle control)).

[7] = molecular target: T4, bradykinin receptor 1 (BDKRB1) (Homo sapiens, UniProt P46663); assay: BDKRB1 calcium flux assay, antagonist mode; assay type: cell-based; conditions: IC50 column pair
T4 sequence (P46663 1-353): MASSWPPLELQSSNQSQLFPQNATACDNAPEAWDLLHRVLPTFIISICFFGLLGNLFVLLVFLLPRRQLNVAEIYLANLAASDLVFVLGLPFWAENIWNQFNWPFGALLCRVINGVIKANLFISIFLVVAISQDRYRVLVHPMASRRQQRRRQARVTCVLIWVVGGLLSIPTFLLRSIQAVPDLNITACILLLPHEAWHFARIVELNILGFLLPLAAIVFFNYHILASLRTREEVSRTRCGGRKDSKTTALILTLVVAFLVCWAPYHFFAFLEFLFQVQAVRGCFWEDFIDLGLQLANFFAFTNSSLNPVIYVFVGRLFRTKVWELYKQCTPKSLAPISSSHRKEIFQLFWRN
Procedure: as §8, §9, §10

apelin receptor AGTRL1 = molecular target: T5, apelin receptor AGTRL1 (Homo sapiens, UniProt P35414); assay: AGTRL1 cAMP assay; assay type: cell-based
T5 sequence (P35414 1-380): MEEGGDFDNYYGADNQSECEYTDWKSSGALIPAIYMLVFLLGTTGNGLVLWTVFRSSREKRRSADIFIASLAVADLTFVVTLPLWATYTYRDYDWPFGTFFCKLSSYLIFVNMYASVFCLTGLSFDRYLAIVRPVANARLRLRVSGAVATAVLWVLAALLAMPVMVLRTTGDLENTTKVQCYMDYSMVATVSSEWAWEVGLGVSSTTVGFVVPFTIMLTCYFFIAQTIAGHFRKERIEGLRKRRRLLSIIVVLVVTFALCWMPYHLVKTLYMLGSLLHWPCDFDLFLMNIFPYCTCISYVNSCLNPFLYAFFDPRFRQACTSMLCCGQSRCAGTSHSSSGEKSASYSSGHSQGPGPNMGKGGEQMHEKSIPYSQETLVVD
Procedure: as §1, §7

somatostatin receptor SSTR2, sequence (P30874 whole entry): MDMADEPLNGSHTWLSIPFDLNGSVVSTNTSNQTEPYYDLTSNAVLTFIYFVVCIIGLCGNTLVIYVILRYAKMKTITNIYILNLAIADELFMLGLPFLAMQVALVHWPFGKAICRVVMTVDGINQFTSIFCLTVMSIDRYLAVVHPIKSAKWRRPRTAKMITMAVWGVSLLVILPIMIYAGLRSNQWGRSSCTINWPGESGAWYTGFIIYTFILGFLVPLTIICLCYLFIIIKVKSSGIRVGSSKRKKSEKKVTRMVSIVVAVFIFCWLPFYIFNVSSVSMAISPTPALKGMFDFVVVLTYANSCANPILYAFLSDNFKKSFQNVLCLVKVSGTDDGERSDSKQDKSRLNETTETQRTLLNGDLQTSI

| Compound | CLR/RAMP1 Max Activity % of positive control (CLR/RAMP1 receptor [2]) | CLR/RAMP2 Max Activity % of positive control (CLR/RAMP2 receptor [4]) | AGTRL1 Max Activity (apelin receptor AGTRL1) | other results |
| --- | --- | --- | --- | --- |
| CSCC[C@H](NC(=O)[C@H](C)NC(=O)[C@@H]1CCCN1C(=O)[C@H](CC(N)=O)NC(=O)[C@H](CO)NC(=O)[C@H](CC(N)=O)NC(=O)[C@H](C)NC(=O)[C@@H](N)CO)C(=O)N[C@@H](C)C(=O)N1CCC[C@H]1C(=O)N[C@@H](CCCNC(=N)N)C(=O)N[C@@H](CCC(=O)O)C(=O)N[C@@H](CCCNC(=N)N)C(=O)N[C@@H](CCCCN)C(=O)N[C@@H](C)C(=O)NCC(=O)N[C@H]1CSSC[C@@H](C(=O)O)NC(=O)[C@H](CO)NC(=O)[C@H]([C@@H](C)O)NC(=O)[C@H](Cc2ccccc2)NC(=O)[C@H]([C@@H](C)O)NC(=O)[C@H](CCCCN)NC(=O)[C@H](Cc2c[nH]c3ccccc23)NC(=O)[C@H](Cc2ccccc2)NC(=O)[C@H](Cc2ccccc2)NC(=O)[C@H](CC(N)=O)NC(=O)[C@H](CCCCN)NC1=O [Somatostatin 28] | – | – | – | SSTR2 Max Activity [1]: 102 % of positive controls |
| Sar-RVYVHPA-miniPEG-K(PAL)GCRFGTCTVQKLAHQIYQFTDKDVAPRSKISPQGY-NH2 [SEQ ID NO: 234] | 132 % of positive control | 86 % of positive control | – | AGTR1 Max Activity (IC50 column pair) [3]: 104 % of positive controls |
| Pal-KVQKLAHQSAPVDPSSPHSY-NH2 [SEQ ID NO: 124] | – | – | – | CLR/RAMP3 Max Activity % of positive control (antagonist) (CLR/RAMP3 receptor): 102 % of positive control; CLR/RAMP1 Max Activity % of positive control (antagonist) (CLR/RAMP1 receptor [5]): 95 % of positive control; CLR/RAMP2 Max Activity % of positive control (antagonist) (CLR/RAMP2 receptor [6]): 103 % of positive control |
| Ace-KRPPGFS-DβNal-I-miniPEG-K(PAL)GCRFGTCTVQKLAHQIYQFTDKDVAPRSKISPQGY-NH2 [SEQ ID NO: 231] | 115 % of positive control | 46 % of positive control | – | BDKRB1 Max Activity [7]: 109 % of positive controls |
| (G1p)RPRLSHKGPMPF [Apelin 13, reference compound] | – | – | 100 % of positive controls | – |
| (Glp)RPRLSHKGP(Nle)PF-miniPEG-K(PAL)GCRFGTCTVQKLAHQIYQFTDKDVAPRSKISPQGY-NH2 [SEQ ID NO: 228] | 130 % of positive control | 74 % of positive control | 97 % of positive controls | – |
